# ChEMBL document CHEMBL5346961, “Discovery and Evaluation of 3-Quinoxalin Urea Derivatives as Potent, Selective, and Orally Available ATM Inhibitors Combined with Chemotherapy for the Treatment of Cancer via Goal-Oriented Molecule Generation and Virtual Screening” (J Med Chem, 2023)
# How the values were obtained:
# [1] = molecular target: T1, Serine-protein kinase ATM (Homo sapiens, UniProt Q13315); assay: Inhibition of ATM (unknown origin) assessed as remaining activity at 1 uM preincubated with compound for 30 mins followed by substrate addition and measured after 2 hrs by HTRF method relative to control; conditions: time 2.5 hrs
# [2] = Metabolic stability in human liver microsomes assessed as clearance at 1 uM in presence of NADPH-regenerating system by LC-MS/MS analysis; format: ADME, Microsome
# [3] = Metabolic stability in human liver microsomes assessed as half life at 1 uM in presence of NADPH-regenerating system by LC-MS/MS analysis; format: ADME, Microsome
# [4] = molecular target: T1, Serine-protein kinase ATM; assay: Inhibition of ATM (unknown origin) assessed as remaining activity at 0.01 uM preincubated with compound for 30 mins followed by substrate addition and measured after 2 hrs by HTRF method relative to control; conditions: time 2.5 hrs
# HCT-116 [5] = assay: Inhibition of colony formation in human HCT-116 cells at 0.01 uM preincubated for 1 hr followed by exposure to 2 Gy gamma irradiation and measured after 1 week by crystal violet staining based […] assay relative to control; format: functional; conditions: HCT-116, light or radiation study, time 169 hrs
# [6] = molecular target: Serine/threonine-protein kinase ATR (Homo sapiens, UniProt Q13535); assay: Inhibition of ATR (unknown origin) assessed as remaining activity at 1 uM in presence of [gamma33P-ATP] by radiometric assay
# [7] = molecular target: T1, Serine-protein kinase ATM; assay: Inhibition of ATM (unknown origin) preincubated with compound for 30 mins followed by substrate addition and measured after 2 hrs by HTRF method
# HCT-116 [8] = assay: Inhibition of colony formation in human HCT-116 cells preincubated for 1 hr followed by exposure to 2 Gy gamma irradiation and measured after 1 week by crystal violet staining based […] assay; format: functional, cell-based; conditions: HCT-116, light or radiation study
# HCT-116 [9] = assay: Antiproliferative activity against human HCT-116 cells assessed as cell survival at 1 uM incubated for 6 days by MTT assay relative to control; format: functional; conditions: HCT-116, 144 h, time 6 day, read-out: Survival
# T1 sequence (Q13315 whole entry): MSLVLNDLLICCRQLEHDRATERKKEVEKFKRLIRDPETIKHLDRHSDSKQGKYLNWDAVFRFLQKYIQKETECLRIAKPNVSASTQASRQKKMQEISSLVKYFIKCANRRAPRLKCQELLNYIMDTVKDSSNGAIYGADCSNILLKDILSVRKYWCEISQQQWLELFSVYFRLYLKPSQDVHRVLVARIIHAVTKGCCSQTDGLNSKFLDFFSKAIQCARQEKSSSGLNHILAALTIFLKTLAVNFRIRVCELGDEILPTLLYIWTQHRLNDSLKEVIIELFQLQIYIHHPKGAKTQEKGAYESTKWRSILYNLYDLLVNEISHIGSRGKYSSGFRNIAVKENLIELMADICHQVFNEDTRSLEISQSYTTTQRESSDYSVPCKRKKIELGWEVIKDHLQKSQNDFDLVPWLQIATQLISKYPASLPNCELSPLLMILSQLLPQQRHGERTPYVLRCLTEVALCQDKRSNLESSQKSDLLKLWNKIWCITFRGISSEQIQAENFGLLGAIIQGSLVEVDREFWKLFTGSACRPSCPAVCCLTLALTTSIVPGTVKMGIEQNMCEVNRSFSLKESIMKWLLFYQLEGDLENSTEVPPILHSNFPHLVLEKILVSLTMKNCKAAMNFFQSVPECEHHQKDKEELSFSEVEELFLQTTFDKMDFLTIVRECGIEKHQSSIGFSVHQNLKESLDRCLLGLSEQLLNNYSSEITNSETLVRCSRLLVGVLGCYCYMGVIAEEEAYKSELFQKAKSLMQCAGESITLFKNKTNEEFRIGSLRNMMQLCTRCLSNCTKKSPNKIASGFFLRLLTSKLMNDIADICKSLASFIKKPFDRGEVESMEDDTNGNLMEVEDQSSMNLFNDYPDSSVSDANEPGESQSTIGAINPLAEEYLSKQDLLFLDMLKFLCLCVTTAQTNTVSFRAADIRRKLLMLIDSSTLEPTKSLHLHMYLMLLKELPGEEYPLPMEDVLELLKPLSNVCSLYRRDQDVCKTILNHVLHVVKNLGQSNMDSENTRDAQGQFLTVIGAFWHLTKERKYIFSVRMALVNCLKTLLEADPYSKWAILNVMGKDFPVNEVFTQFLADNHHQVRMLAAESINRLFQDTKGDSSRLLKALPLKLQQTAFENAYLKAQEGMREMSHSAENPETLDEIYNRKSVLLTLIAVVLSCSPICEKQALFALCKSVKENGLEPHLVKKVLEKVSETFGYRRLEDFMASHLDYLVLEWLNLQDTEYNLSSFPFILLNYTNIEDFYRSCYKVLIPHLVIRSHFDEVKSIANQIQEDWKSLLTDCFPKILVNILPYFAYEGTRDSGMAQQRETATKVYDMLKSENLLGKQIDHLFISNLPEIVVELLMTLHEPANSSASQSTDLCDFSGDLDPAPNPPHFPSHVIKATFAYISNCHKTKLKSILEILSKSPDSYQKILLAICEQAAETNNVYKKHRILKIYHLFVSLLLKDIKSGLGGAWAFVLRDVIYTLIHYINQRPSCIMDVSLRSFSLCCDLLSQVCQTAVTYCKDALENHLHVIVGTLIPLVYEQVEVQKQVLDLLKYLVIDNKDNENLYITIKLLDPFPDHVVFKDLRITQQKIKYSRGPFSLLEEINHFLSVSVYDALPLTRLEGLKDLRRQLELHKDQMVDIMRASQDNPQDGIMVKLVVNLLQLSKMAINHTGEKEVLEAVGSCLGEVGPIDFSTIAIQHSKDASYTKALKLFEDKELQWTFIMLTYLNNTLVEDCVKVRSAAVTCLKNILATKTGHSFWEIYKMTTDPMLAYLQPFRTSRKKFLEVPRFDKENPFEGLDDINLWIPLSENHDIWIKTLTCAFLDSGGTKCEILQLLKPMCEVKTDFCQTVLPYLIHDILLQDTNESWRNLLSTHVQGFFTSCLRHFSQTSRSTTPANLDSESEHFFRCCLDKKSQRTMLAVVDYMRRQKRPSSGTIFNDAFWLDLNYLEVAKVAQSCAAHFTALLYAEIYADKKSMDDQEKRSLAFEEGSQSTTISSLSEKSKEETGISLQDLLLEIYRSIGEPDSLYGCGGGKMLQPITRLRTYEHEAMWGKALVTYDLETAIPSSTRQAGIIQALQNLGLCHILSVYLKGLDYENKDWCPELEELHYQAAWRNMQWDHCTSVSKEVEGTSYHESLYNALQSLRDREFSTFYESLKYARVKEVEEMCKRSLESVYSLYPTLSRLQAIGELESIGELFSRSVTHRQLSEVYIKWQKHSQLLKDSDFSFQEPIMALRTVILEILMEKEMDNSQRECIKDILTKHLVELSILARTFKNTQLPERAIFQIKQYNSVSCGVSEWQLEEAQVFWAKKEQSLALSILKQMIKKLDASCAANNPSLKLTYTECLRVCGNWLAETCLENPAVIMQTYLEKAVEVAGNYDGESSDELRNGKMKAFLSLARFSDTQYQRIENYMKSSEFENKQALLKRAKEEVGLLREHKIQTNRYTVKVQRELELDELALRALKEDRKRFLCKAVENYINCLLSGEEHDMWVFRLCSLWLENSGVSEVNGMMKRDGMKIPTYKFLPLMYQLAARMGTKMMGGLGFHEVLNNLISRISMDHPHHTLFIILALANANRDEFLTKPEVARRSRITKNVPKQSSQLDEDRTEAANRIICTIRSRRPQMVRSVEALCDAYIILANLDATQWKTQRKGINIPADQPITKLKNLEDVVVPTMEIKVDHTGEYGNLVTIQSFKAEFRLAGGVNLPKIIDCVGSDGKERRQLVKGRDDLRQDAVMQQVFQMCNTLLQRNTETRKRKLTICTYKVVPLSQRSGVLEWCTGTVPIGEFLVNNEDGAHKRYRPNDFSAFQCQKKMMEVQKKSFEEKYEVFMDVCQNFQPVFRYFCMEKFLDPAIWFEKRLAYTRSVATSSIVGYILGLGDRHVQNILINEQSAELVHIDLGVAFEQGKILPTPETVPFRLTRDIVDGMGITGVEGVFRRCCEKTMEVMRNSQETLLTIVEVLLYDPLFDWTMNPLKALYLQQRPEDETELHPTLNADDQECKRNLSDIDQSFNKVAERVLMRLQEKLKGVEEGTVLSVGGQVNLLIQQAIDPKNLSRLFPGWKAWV
Activity [1],CLH [2],half-life at 1 µM [3],Activity [4],Activity [6],IC50 [7],IC50 (HCT-116 [8]),Structure (SMILES),inhibition at 0.01 µM (HCT-116 [5]),viability at 1 µM (HCT-116 [9])
–,45 mL/min/g,51 min,22%,120%,3 nM,–,COc1ccc(NC(=O)N(C)c2cnc3ccc(-c4ccc(OCCCN(C)C)nc4)cc3n2)cc1,-0.75%,–
–,93 mL/min/g,19 min,8%,94%,2 nM,–,CC1CCC(NC(=O)N(C)c2cnc3ccc(-c4ccc(OCCCN(C)C)nc4)cc3n2)CC1 (stereo unspecified),76.2%,–
–,–,–,37%,111%,–,–,CN(C)CCCOc1ccc(-c2ccc3ncc(N(C)C(=O)Nc4ccc(Cl)cc4)nc3c2)cn1,11.7%,–
-1%,60 mL/min/g,35 min,66%,–,26 nM,–,CC(C)NC(=O)N(C)c1cnc2ccc(-c3ccc(OCCCCN(C)C)nc3)cc2n1,20.2%,–
–,127 mL/min/g,11 min,33%,104%,6 nM,–,CCNC(=O)N(C)c1cnc2ccc(-c3ccc(OCCCN(C)C)nc3)cc2n1,57.8%,–
–,–,–,39%,109%,–,–,CN(C)CCCOc1ccc(-c2ccc3ncc(N(C)C(=O)Nc4cccc(C(F)(F)F)c4)nc3c2)cn1,-11.9%,–
–,84 mL/min/g,16 min,12%,102%,3 nM,–,CCCNC(=O)N(C)c1cnc2ccc(-c3ccc(OCCCN(C)C)nc3)cc2n1,77.4%,–
-2%,37 mL/min/g,46 min,73%,–,30 nM,–,CC(C)NC(=O)N(C)c1cnc2ccc(-c3ccc(OCCN(C)C)nc3)cc2n1,-0.98%,–
-4%,120 mL/min/g,12 min,–,99%,–,–,CCCNC(=O)Nc1cnc2ccc(-c3ccc(OCCCN(C)C)nc3)cc2n1,–,–
–,100 mL/min/g,14 min,22%,98%,13 nM,–,CN(C)CCCOc1ccc(-c2ccc3ncc(N(C)C(=O)NC(C)(C)C)nc3c2)cn1,44.7%,–
43%,–,–,103%,–,–,–,COCCCOc1ccc(-c2ccc3ncc(N(C)C(=O)NC(C)C)nc3c2)cn1,-24.2%,–
-4%,94 mL/min/g,15 min,–,98%,–,–,CC(C)NC(=O)Nc1cnc2ccc(-c3ccc(OCCCN(C)C)nc3)cc2n1,–,–
–,55 mL/min/g,25 min,11%,103%,2 nM,12.2 nM,C=CCNC(=O)N(C)c1cnc2ccc(-c3ccc(OCCCN(C)C)nc3)cc2n1,49.7%,–
-3%,151 mL/min/g,9 min,–,101%,–,–,C=CCNC(=O)Nc1cnc2ccc(-c3ccc(OCCCN(C)C)nc3)cc2n1,–,–

# Second part, the compound before the results:
Structure (SMILES),Activity [1],CLH [2],half-life at 1 µM [3],Activity [4],Activity [6],IC50 [7],IC50 (HCT-116 [8]),inhibition at 0.01 µM (HCT-116 [5]),viability at 1 µM (HCT-116 [9])
CC(C)NC(=O)N(C)c1cnc2ccc(-c3ccc(OCCCN4CCCC4=O)nc3)cc2n1,71%,19 mL/min/g,90 min,106%,–,–,–,33.7%,–
CC(C)NC(=O)N(C)c1cnc2ccc(-c3ccc(OCCCN4CCCC4)nc3F)cc2n1,–,6.8 mL/min/g,204 min,–,–,4 nM,26.5 nM,43.4%,–
CC(C)NC(=O)N(C)c1cnc2ccc(-c3ccc(OCCN4CCCC4)nc3)cc2n1,1%,–,–,76%,–,–,–,25%,–
CC(C)NC(=O)N(C)c1cnc2ccc(-c3ccc(OC4CCN(C)CC4)nc3)cc2n1,25%,–,–,100%,–,–,–,-7.74%,–
CC(C)NC(=O)N(C)c1cnc2ccc(-c3ccc(OCC4CCCN(C)C4)nc3)cc2n1 (stereo unspecified),0%,36 mL/min/g,55 min,43%,–,22 nM,–,-8.09%,–
CC(C)NC(=O)N(C)c1cnc2ccc(-c3ccc(OCCCN4CCCCC4)nc3F)cc2n1,–,7.4 mL/min/g,187 min,–,–,1 nM,15.4 nM,68.7%,–
CC(C)NC(=O)N(C)c1cnc2ccc(-c3ccnc(OCCCN4CCCCC4)c3)cc2n1,10%,–,–,97%,–,–,–,32.2%,–
CC(C)NC(=O)N(C)c1cnc2ccc(-c3cnc(OCCCN4CCCCC4)cc3F)cc2n1,-3%,–,–,29%,–,5 nM,–,27.4%,–
CN(C)CCCOc1ccc(-c2ccc3ncc(NC(=O)NC(C)(C)C)nc3c2)cn1,-2%,185 mL/min/g,8 min,–,94%,–,–,–,–
CC(C)NC(=O)N(C)c1cnc2ccc(-c3ccc(OCCCN4CCN(C)CC4)nc3)cc2n1,–,13 mL/min/g,107 min,5%,–,3 nM,5.41 nM,73.6%,> 83%
CC(C)NC(=O)N(C)c1cnc2ccc(-c3ccc(OCCN4CCN(C)CC4)nc3)cc2n1,22%,–,–,97%,–,–,–,22.8%,–
CC(C)NC(=O)N(C)c1cnc2ccc(-c3ccc(OCCN4CCOCC4)nc3)cc2n1,13%,–,–,94%,–,–,–,16.9%,–
Cc1cc(-c2ccc3ncc(N(C)C(=O)NC(C)C)nc3c2)cnc1OCCCN1CCCCC1,29%,–,–,107%,–,–,–,-28.4%,–
CC(C)CCCOc1ccc(-c2ccc3ncc(N(C)C(=O)NC(C)C)nc3c2)cn1,33%,–,–,–,–,–,–,–,–
Cc1nc(OCCCN2CCCCC2)ccc1-c1ccc2ncc(N(C)C(=O)NC(C)C)nc2c1,-4%,3 mL/min/g,462 min,16%,–,9 nM,21.9 nM,48.2%,–
Cc1cc(OCCCN2CCCCC2)ncc1-c1ccc2ncc(N(C)C(=O)NC(C)C)nc2c1,22%,–,–,96%,–,–,–,-19.8%,–
CC(C)NC(=O)N(C)c1cnc2ccc(-c3ccc(OCCC4CCCN4C)nc3)cc2n1 (stereo unspecified),-3%,51 mL/min/g,48 min,43%,–,10 nM,–,36.5%,–
CC(C)NC(=O)N(C)c1cnc2ccc(-c3ccc(OCCCN4CCCCC4)nc3C#N)cc2n1,-4%,5.1 mL/min/g,277 min,26%,–,16 nM,–,14%,–
CC(C)NC(=O)N(C)c1cnc2ccc(-c3cnc(OCCCN4CCCCC4)c(F)c3)cc2n1,6%,–,–,94%,–,–,–,-3.96%,–
CN(C)CCCOc1ccc(-c2ccc3ncc(N(C)C(=O)N[C@]45C[C@@H]6C[C@H](C[C@@H](C6)C4)C5)nc3c2)cn1,–,19 mL/min/g,73 min,37%,101%,8 nM,–,-3.67%,–
CC(C)NC(=O)N(C)c1cnc2ccc(-c3ccc(OC4CCC(N(C)C)CC4)nc3)cc2n1 (stereo unspecified),54%,–,–,108%,–,–,–,11.3%,–
CC(C)NC(=O)N(C)c1cnc2ccc(-c3ccc(OCC4CCN(C)C4)nc3)cc2n1 (stereo unspecified),1%,40 mL/min/g,50 min,72%,–,31 nM,–,32.9%,–
CN(C)CCCOc1ccc(-c2ccc3ncc4c(c3c2)n(C2CCOCC2)c(=O)n4C)cn1,–,–,–,–,–,–,0.46 nM,94.3%,–
CC(C)NC(=O)N(C)c1cnc2ccc(-c3ccc(OCCN4CCCCC4)nc3)cc2n1,4%,47 mL/min/g,38 min,86%,–,–,–,24%,–
CC(C)NC(=O)N(C)c1cnc2ccc(-c3ccc(OCCCN4CCOCC4)nc3)cc2n1,–,24 mL/min/g,61 min,4%,–,3 nM,7.13 nM,64.1%,> 83%
CC(C)NC(=O)N(C)c1cnc2ccc(-c3ccc(OC(C)CN(C)C)nc3)cc2n1 (stereo unspecified),4%,43 mL/min/g,55 min,94%,–,–,–,14.7%,–
CC(C)NC(=O)N(C)c1cnc2ccc(-c3cnc(OCCCN4CCCCC4)c(C(F)(F)F)c3)cc2n1,10%,–,–,90%,–,–,–,-13.6%,–
CN(C)CCCOc1ccc(-c2ccc3ncc(NC(=O)NC4CCCC4)nc3c2)cn1,-5%,144 mL/min/g,10 min,–,98%,–,–,–,–
